# From ChEMBL document CHEMBL1139570, “Estrogen receptor ligands: design and synthesis of new 2-arylindene-1-ones” (Bioorg Med Chem Lett, 2005)
# What was measured:
# Estrogen receptor beta = Estrogen receptor beta (Homo sapiens, UniProt Q92731)
# Description: Inhibition of human estrogen receptor beta
# Estrogen receptor = molecular target: T1, Estrogen receptor (Homo sapiens, UniProt P03372)
# T1 sequence (P03372 whole entry): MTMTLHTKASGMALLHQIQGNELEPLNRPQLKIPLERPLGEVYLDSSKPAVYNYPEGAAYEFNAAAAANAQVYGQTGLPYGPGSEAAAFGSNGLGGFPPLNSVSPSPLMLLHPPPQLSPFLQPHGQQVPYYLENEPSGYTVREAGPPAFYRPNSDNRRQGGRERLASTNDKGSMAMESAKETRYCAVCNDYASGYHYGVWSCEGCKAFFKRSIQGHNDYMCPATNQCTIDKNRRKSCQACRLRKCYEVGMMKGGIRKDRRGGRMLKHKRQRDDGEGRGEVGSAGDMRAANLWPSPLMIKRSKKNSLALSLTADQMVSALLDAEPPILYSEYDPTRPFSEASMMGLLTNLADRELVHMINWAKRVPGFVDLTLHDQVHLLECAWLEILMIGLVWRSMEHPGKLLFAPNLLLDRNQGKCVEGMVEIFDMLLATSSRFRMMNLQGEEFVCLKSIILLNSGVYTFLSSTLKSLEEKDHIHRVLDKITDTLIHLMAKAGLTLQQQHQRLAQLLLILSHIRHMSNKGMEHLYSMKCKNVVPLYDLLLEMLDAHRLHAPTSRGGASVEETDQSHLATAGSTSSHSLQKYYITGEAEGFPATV
# Description: Inhibition of human estrogen receptor alpha
# Estrogen receptor beta, sequence (Q92731 whole entry): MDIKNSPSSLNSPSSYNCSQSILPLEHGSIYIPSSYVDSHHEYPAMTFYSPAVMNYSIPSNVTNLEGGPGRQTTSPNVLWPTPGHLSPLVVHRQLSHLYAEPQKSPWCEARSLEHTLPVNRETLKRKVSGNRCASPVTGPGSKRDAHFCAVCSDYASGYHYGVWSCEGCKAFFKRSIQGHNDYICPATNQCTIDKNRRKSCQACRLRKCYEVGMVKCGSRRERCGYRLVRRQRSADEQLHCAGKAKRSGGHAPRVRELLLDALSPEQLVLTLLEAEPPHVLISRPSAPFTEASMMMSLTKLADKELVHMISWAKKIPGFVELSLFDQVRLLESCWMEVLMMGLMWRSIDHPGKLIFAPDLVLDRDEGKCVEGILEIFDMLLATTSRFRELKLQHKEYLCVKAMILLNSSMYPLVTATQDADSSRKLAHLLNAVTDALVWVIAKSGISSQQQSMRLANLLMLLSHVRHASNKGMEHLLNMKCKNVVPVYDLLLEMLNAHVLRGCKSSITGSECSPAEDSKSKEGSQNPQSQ
Structure (SMILES),IC50 (Estrogen receptor beta) [nM],IC50 (Estrogen receptor) [nM]
NC1=C(c2ccc(O)cc2)C(=O)c2cc(O)ccc21,1150,> 5000
CCSC1=C(c2ccc(O)cc2)C(=O)c2cc(O)cc(O)c21,150,580
CCSC1=C(c2ccc(O)cc2)C(=O)c2ccc(O)cc21,,480
CC/N=C1/C(c2ccc(O)cc2)=C(O)c2cc(O)cc(O)c21,2700,> 5000
O=C1C(c2ccc(O)cc2)=C(O)c2ccc(O)cc21,,> 5000
O=C1C(c2ccc(O)cc2)=C(O)c2cc(O)cc(O)c21,,> 5000
COc1ccc2c(c1)C(Br)=C(c1ccc(O)cc1)C2=O,199,1800
CC1=C(c2ccc(O)cc2)C(=O)c2c(O)cc(O)cc21,2.4,

# The remaining lines, values ahead:
IC50 (Estrogen receptor beta) [nM],IC50 (Estrogen receptor) [nM],Structure (SMILES)
9,9,O=C1C(c2ccc(O)cc2)=C(c2ccccc2)c2ccc(O)cc21
1.3,3.1,CSC1=C(c2ccc(O)cc2)C(=O)c2ccc(O)cc21
1.7,5.2,O=C1C(c2ccc(O)cc2)=C(Br)c2cc(O)ccc21
10,10,O=C1C(c2ccc(O)cc2)=C(c2ccccc2)c2cc(O)ccc21
